In PubChem BioAssay AID256 (DTP/NCI, 2004):
Several values for one entry are separate records, joined by “and”; a condition that tells them apart may be missing. Identical values can stand only once. Inconclusive results and toxic doses are left out.

System: CD2F1 mice, L1210 leukemia ip, survival T/C
Assay: NCI In Vivo Anticancer Drug Screen. Data for tumor model L1210 Leukemia (intraperitoneal) in CD2F1 (CDF1) mice
Conditions: higher = longer survival
Summary of the method: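 Vehicle-treated tumor-bearing mice served as controls (C) for compound-treated mice (T). Reported figure is T divided by C.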

[1] = endpoint: mean survival time, dose: 100.0 mg/kg/injection, schedule: Q01DX001 (ip), vehicle: saline with Tween-80
[2] = endpoint: mean survival time, dose: 100.0 mg/kg/injection, schedule: Q01DX009 (ip), vehicle: saline with Tween-80
[3] = endpoint: mean survival time, dose: 100.0 mg/kg/injection, schedule: Q04DX002 (ip), vehicle: saline with Tween-80
[4] = endpoint: mean survival time, dose: 100.0 mg/kg/injection, schedule: Q04DX003 (ip), vehicle: saline with Tween-80
[5] = endpoint: mean survival time, dose: 200.0 mg/kg/injection, schedule: Q01DX001 (ip), vehicle: saline with Tween-80
[6] = endpoint: mean survival time, dose: 200.0 mg/kg/injection, schedule: Q01DX009 (ip), vehicle: saline with Tween-80
[7] = endpoint: mean survival time, dose: 200.0 mg/kg/injection, schedule: Q04DX002 (ip), vehicle: saline with Tween-80
[8] = endpoint: mean survival time, dose: 200.0 mg/kg/injection, schedule: Q04DX003 (ip), vehicle: saline with Tween-80
[9] = endpoint: mean survival time, dose: 400.0 mg/kg/injection, schedule: Q01DX009 (ip), vehicle: saline with Tween-80
[10] = endpoint: mean survival time, dose: 400.0 mg/kg/injection, schedule: Q04DX003 (ip), vehicle: saline with Tween-80
[11] = endpoint: mean survival time, dose: 50.0 mg/kg/injection, schedule: Q04DX003 (ip), vehicle: saline with Tween-80
[12] = endpoint: mean survival time, dose: 50.0 mg/kg/injection, schedule: Q01DX009 (ip), vehicle: saline with Tween-80

For `COc1ccc(OC)c(NC(=O)Nc2cc([N+](=O)[O-])ccc2Cl)c1`, the T/C [1] was 91 % of control, the T/C [2] was 93 % of control and 95 % of control and the T/C [3] was 92 % of control and 95 % of control. The T/C [4] was 101 % of control, the T/C [5] was 88 % of control and the T/C [6] was 115 % of control and 98 % of control. For the same compound, the T/C [7] was 91 % of control and 96 % of control, the T/C [8] was 96 % of control and the T/C [9] was 100 % of control and 101 % of control. For the same compound, the T/C (endpoint: mean survival time, dose: 400.0 mg/kg/injection, schedule: Q04DX002 (ip), vehicle: saline with Tween-80) was 96 % of control and 104 % of control and the T/C [10] was 96 % of control.
`CC(=O)Nc1ccc(OC(C)=O)cc1` was tested, and the T/C (endpoint: mean survival time, dose: 25.0 mg/kg/injection, schedule: Q04DX003 (ip), vehicle: saline with Tween-80) was 97 % of control, the T/C [11] was 97 % of control and the T/C [4] was 101 % of control.
For `Cc1ccc(-n2c(O)c(N=Nc3ccccc3)c(=O)n(-c3ccc(C)cc3)c2=S)cc1`, the T/C [1] was 95 % of control, the T/C [5] was 100 % of control and the T/C (endpoint: mean survival time, dose: 400.0 mg/kg/injection, schedule: Q01DX001 (ip), vehicle: saline with Tween-80) was 97 % of control.
In the case of `CCCCCNCCOC(=O)c1ccc(N)cc1`, the T/C (endpoint: mean survival time, dose: 5.0 mg/kg/injection, schedule: Q01DX001 (ip), vehicle: saline) was 100 % of control, the T/C (endpoint: mean survival time, dose: 10.0 mg/kg/injection, schedule: Q01DX001 (ip), vehicle: saline) was 100 % of control and the T/C (endpoint: mean survival time, dose: 20.0 mg/kg/injection, schedule: Q01DX001 (ip), vehicle: saline) was 94 % of control. For the same compound, the T/C (endpoint: mean survival time, dose: 40.0 mg/kg/injection, schedule: Q01DX001 (ip), vehicle: saline) was 104 % of control.
`CN(C)C(=O)c1cccc(COc2ccc([N+](=O)[O-])cc2Cl)c1` was tested, and the T/C (endpoint: mean survival time, dose: 100.0 mg/kg/injection, schedule: Q01DX009 (ip), vehicle: saline sonified) was 102 % of control, the T/C [4] was 101 % of control and the T/C (endpoint: mean survival time, dose: 200.0 mg/kg/injection, schedule: Q01DX009 (ip), vehicle: saline sonified) was 98 % of control. The T/C [8] was 103 % of control and the T/C [10] was 95 % of control.
With `[NH-]C(CO)C(=O)O.[NH-]C(CO)C(=O)O.[Pt+2]` (configuration not stated) the T/C (endpoint: mean survival time, dose: 0.78 mg/kg/injection, schedule: Q04DX003 (ip), vehicle: saline with Tween-80) was 100 % of control, the T/C (endpoint: mean survival time, dose: 1.56 mg/kg/injection, schedule: Q04DX003 (ip), vehicle: saline with Tween-80) was 92 % of control and the T/C (endpoint: mean survival time, dose: 3.13 mg/kg/injection, schedule: Q04DX003 (ip), vehicle: saline with Tween-80) was 95 % of control. For the same compound, the T/C (endpoint: mean survival time, dose: 3.13 mg/kg/injection, schedule: Q04DX003 (ip), vehicle: water) was 100 % of control, the T/C (endpoint: mean survival time, dose: 6.25 mg/kg/injection, schedule: Q04DX003 (ip), vehicle: saline with Tween-80) was 97 % of control and the T/C (endpoint: mean survival time, dose: 6.25 mg/kg/injection, schedule: Q04DX003 (ip), vehicle: saline) was 102 % of control. The T/C (endpoint: mean survival time, dose: 6.25 mg/kg/injection, schedule: Q04DX003 (ip), vehicle: water) was 103 % of control, the T/C (endpoint: mean survival time, dose: 12.5 mg/kg/injection, schedule: Q04DX003 (ip), vehicle: saline with Tween-80) was 94 % of control and the T/C (endpoint: mean survival time, dose: 12.5 mg/kg/injection, schedule: Q04DX003 (ip), vehicle: saline) was 103 % of control. For the same compound, the T/C (endpoint: mean survival time, dose: 12.5 mg/kg/injection, schedule: Q04DX003 (ip), vehicle: water) was 101 % of control, the T/C (endpoint: mean survival time, dose: 25.0 mg/kg/injection, schedule: Q04DX003 (ip), vehicle: saline) was 100 % of control and the T/C (endpoint: mean survival time, dose: 25.0 mg/kg/injection, schedule: Q04DX003 (ip), vehicle: water) was 91 % of control. For the same compound, the T/C (endpoint: mean survival time, dose: 50.0 mg/kg/injection, schedule: Q04DX003 (ip), vehicle: saline) was 103 % of control, the T/C (endpoint: mean survival time, dose: 50.0 mg/kg/injection, schedule: Q04DX003 (ip), vehicle: water) was 94 % of control and the T/C (endpoint: mean survival time, dose: 100.0 mg/kg/injection, schedule: Q04DX003 (ip), vehicle: saline) was 103 % of control. The T/C (endpoint: mean survival time, dose: 100.0 mg/kg/injection, schedule: Q04DX003 (ip), vehicle: water) was 88 % of control, the T/C (endpoint: mean survival time, dose: 200.0 mg/kg/injection, schedule: Q04DX003 (ip), vehicle: saline) was 86 % of control and the T/C (endpoint: mean survival time, dose: 200.0 mg/kg/injection, schedule: Q04DX003 (ip), vehicle: water) was 88 % of control.
`ON=C(Cc1ccccc1)Cc1ccccc1` was tested, and the T/C [2] was 103 % of control, the T/C [4] was 102 % of control and the T/C [6] was 94 % of control. The T/C [8] was 100 % of control, the T/C [9] was 95 % of control and the T/C [10] was 105 % of control.
For `Cc1ccc(NC(=S)NCCO)cc1`, the T/C [2] was 86 % of control, the T/C [6] was 92 % of control and the T/C [9] was 88 % of control.
`CCOC(=O)c1ncn(C2OC(COC(=O)c3ccccc3)C(OC(=O)c3ccccc3)C2OC(=O)c2ccccc2)c1C` (configuration not stated) was tested, and the T/C (endpoint: median survival time, dose: 48.9 mg/kg/injection, schedule: Q01DX005 (ip), vehicle: saline with Tween-80) was 98 % of control, the T/C (endpoint: median survival time, dose: 97.8 mg/kg/injection, schedule: Q01DX005 (ip), vehicle: saline with Tween-80) was 100 % of control and the T/C (endpoint: median survival time, dose: 195.6 mg/kg/injection, schedule: Q01DX005 (ip), vehicle: saline with Tween-80) was 90 % of control.
With `CC(Br)C(C)Br` (configuration not stated) the T/C (endpoint: mean survival time, dose: 50.0 mg/kg/injection, schedule: Q01DX009 (ip), vehicle: saline) was 103 % of control, the T/C (endpoint: mean survival time, dose: 100.0 mg/kg/injection, schedule: Q01DX009 (ip), vehicle: saline) was 95 % of control and the T/C (endpoint: mean survival time, dose: 200.0 mg/kg/injection, schedule: Q01DX009 (ip), vehicle: saline) was 100 % of control.
With `Cc1ccc(NCCN2CCCCC2)c2c(=O)c3ccccc3sc12` the T/C (endpoint: mean survival time, dose: 100.0 mg/kg/injection, schedule: Q04DX003 (ip), vehicle: Klucel (hydroxypropylcellulose) (HPC)) was 93 % of control, the T/C (endpoint: mean survival time, dose: 200.0 mg/kg/injection, schedule: Q04DX003 (ip), vehicle: Klucel (hydroxypropylcellulose) (HPC)) was 103 % of control and the T/C (endpoint: mean survival time, dose: 400.0 mg/kg/injection, schedule: Q04DX003 (ip), vehicle: Klucel (hydroxypropylcellulose) (HPC)) was 109 % of control.
In the case of `CC(C)(C)OOC(=O)c1ccccn1`, the T/C [3] was 95 % of control and the T/C [7] was 95 % of control.
With `CC(C)CCCC(C)C1CCC2C3=CCC4CC(=O)CCC4(C)C3CCC21C` (configuration not stated) the T/C [4] was 95 % of control, the T/C [8] was 92 % of control and the T/C [10] was 93 % of control.
For `COc1ccc(Cc2cncc3cc(OC)c(OC)cc23)cc1OC`, the T/C (endpoint: mean survival time, dose: 100.0 mg/kg/injection, schedule: Q01DX001 (ip), vehicle: saline) was 101 % of control and the T/C (endpoint: mean survival time, dose: 200.0 mg/kg/injection, schedule: Q01DX001 (ip), vehicle: saline) was 96 % of control.
With `COC(=O)C(CCC1CCCCC1)CC1CCCCC1` (configuration not stated) the T/C (endpoint: mean survival time, dose: 100.0 mg/kg/injection, schedule: Q04DX003 (ip), vehicle: acetone) was 108 % of control, the T/C (endpoint: mean survival time, dose: 200.0 mg/kg/injection, schedule: Q04DX003 (ip), vehicle: acetone) was 102 % of control and the T/C (endpoint: mean survival time, dose: 400.0 mg/kg/injection, schedule: Q04DX003 (ip), vehicle: acetone) was 108 % of control.
`COc1cc(OC)c(NC(=O)Oc2cc(C)c(Cl)c(C)c2Cl)cc1Cl` was tested, and the T/C [12] was 94 % of control, the T/C [2] was 94 % of control and the T/C [6] was 97 % of control.
In the case of `CCOC(=O)C(CC(C)C)NC(=O)C(N)Cc1ccc(N(CCCl)CCCl)cc1` (configuration not stated), the T/C (endpoint: mean survival time, dose: 1.25 mg/kg/injection, schedule: Q01DX009 (ip), vehicle: water) was 106 % of control, the T/C (endpoint: mean survival time, dose: 2.5 mg/kg/injection, schedule: Q01DX009 (ip), vehicle: water) was 115 % of control and 119 % of control and the T/C (endpoint: mean survival time, dose: 10.0 mg/kg/injection, schedule: Q01DX009 (ip), vehicle: water) was 169 % of control. For the same compound, the T/C (endpoint: mean survival time, dose: 20.0 mg/kg/injection, schedule: Q01DX009 (ip), vehicle: water) was 114 % of control, the T/C (endpoint: median survival time, dose: 3.6 mg/kg/injection, schedule: Q01DX009 (ip), vehicle: water) was 118 % of control and the T/C (endpoint: median survival time, dose: 16.67 mg/kg/injection, schedule: Q01DX009 (ip), vehicle: water) was 175 % of control. For the same compound, the T/C (endpoint: median survival time, dose: 27.78 mg/kg/injection, schedule: Q01DX009 (ip), vehicle: water) was 118 % of control.
`CC(=O)SCC1C(=O)n2c(cc3ccccc32)C(=O)N1C` (configuration not stated) was tested, and the T/C (endpoint: mean survival time, dose: 50.0 mg/kg/injection, schedule: Q04DX002 (ip), vehicle: saline with Tween-80) was 89 % of control, the T/C [3] was 96 % of control and the T/C [7] was 101 % of control.
`CN(C)N=C1CCCC1` was tested, and the T/C [11] was 101 % of control, the T/C (endpoint: mean survival time, dose: 75.0 mg/kg/injection, schedule: Q01DX001 (ip), vehicle: saline) was 98 % of control and the T/C [4] was 95 % of control. For the same compound, the T/C (endpoint: mean survival time, dose: 150.0 mg/kg/injection, schedule: Q01DX001 (ip), vehicle: saline) was 100 % of control and the T/C [8] was 100 % of control.
In the case of `Cc1ccc(CCl)cc1`, the T/C [12] was 115 % of control and the T/C [2] was 92 % of control.
